From patent publication US20240391931A1 (Bristol-Myers Squibb Company, priority 2021, published 2024)

Key:
N87 cells = test: Cellular proliferation in N87 cells (CellTiter Glo); assay type: cell-based, human; settings: 72 h
Outline: (§1)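 HER2-amplified BT474 and N87 and HER2VC-expressing NCI-H1781, attached overnight, treated with nine compound concentrations from 3 μM in 0.1% DMSO with 5% FBS (7.5% for NCI-H1781). CellTiter Glo read at 72 h (N87) or 120 h with re-dosing at 72 h (BT474, NCI-H1781); converted to cell numbers via standard curve for GI50.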

BT474 cells = test: Cellular proliferation in BT474 cells (CellTiter Glo); assay type: cell-based, human; settings: 120 h, redosed after 72 h
Outline: as §1

NCI-H1781 cells = test: Cellular proliferation in NCI-H1781 cells (CellTiter Glo); assay type: cell-based, human; settings: 120 h, redosed after 72 h
Procedure: In addition to the engineered cell lines, the following cell lines were used: BT474 (human breast carcinoma), N87 (human gastric carcinoma), NCI-H1781 (human lung adenocarcinoma), and A431 (human epidermoid carcinoma); all cell lines were obtained from the American Type Culture Collection (ATCC, Manassas, VA). NCI-H1781 were grown in complete RPMI 1640 (Life Technologies, Carlsbad, CA) supplemented with 15% fetal bovine serum (FBS, Life Technologies, Carlsbad, CA) and 1% Penicillin-Streptomycin (P/S, Life Technologies, Carlsbad, CA). N87 cells were grown in complete RPMI 1640 supplemented with 10% FBS and 1% P/S. BT474 and A431 cells were grown in DMEM (Life Technologies, Carlsbad, CA) supplemented with 10% FBS and 1% P/S. All cells were maintained and propagated in a humidified 5% CO2 incubator at 37° C.
Cell proliferation in adherent cells was investigated in two HER2 amplified cell lines (BT474, N87), and a HER2VC expressing cell line (NCI-H1781). BT474, NCI-H1781, and N87 were plated in their appropriate growth media supplemented with either 10% FBS (BT474, N87) or 15% FBS (NCI-H1781) and 1% P/S in 96-well white clear-bottom tissue culture plates (Costar, Sigma-Aldrich). The starting cell densities were 3500, 5500, and 5000 cells for BT474, NCI-H1781, and N87 cells, respectively. An 8-point standard curve with varying cell densities (starting at 50000 cells and serially diluting down 2-fold) was prepared for each cell line and read 6 h after plating. Cells were allowed to attach overnight prior to compound treatment. Compound solutions were prepared by serially diluting test compounds in DMSO (Sigma-Aldrich), then diluting 500× in their corresponding serum free media. Cells were treated by adding a 1:1 volume of test compound to a final concentration of […], 0.004, 0.0014, or 0.0005 μM, in 0.1% DMSO and 5% FBS (for BT474 and N87) or 7.5% FBS (NCI-H1781). In BT474 and NCI-H1781, cell media was replaced and cells were redosed with fresh test compound solutions after 72 h. Viability was determined by CellTiter Glo (Promega, Madison, WI) after 72 h for N87 cells, and after 120 h for BT474 and […] cells. The results were converted to cell numbers using a standard curve; growth inhibition (GI50 values) were determined by Graph Pad Prism. […] The results are provided in Table 4, under columns titled “BT474-GI50”, “N87-GI50”, and “NCI-H1781-GI50”.

HER2VC (G776delinsVC) = target: T1, HER2VC (G776delinsVC) (Homo sapiens, UniProt P04626, G776C/INS775V); test: HER2 signaling (pHER2) in NCI-H1781 cells; assay type: cell-based; settings: 1.5 hr compound, 1% FBS
T1 construct: NCI-H1781 cells which endogenously expresses a HER2 mutant protein; endogenous in cells; host or cells: NCI-H1781
Outline: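 BT474, N87 (HER2 WT) and NCI-H1781 (HER2 G776delinsVC) cells were treated for 1.5 h at 37° C in 1% FBS medium with compound at 0.0005–1.1 μM. pHER2 Tyr1248 was measured by MSD on whole-cell lysates and normalized to total HER2 as % DMSO. EC50 came from a variable-slope sigmoidal fit.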

[1] = Homo sapiens, BT-474, BT474 cells
[2] = Homo sapiens, NCI-H1781, NCI-H1781 cells

T1 sequence (P04626 with tags, fused parts or gaps INS775V/G776C): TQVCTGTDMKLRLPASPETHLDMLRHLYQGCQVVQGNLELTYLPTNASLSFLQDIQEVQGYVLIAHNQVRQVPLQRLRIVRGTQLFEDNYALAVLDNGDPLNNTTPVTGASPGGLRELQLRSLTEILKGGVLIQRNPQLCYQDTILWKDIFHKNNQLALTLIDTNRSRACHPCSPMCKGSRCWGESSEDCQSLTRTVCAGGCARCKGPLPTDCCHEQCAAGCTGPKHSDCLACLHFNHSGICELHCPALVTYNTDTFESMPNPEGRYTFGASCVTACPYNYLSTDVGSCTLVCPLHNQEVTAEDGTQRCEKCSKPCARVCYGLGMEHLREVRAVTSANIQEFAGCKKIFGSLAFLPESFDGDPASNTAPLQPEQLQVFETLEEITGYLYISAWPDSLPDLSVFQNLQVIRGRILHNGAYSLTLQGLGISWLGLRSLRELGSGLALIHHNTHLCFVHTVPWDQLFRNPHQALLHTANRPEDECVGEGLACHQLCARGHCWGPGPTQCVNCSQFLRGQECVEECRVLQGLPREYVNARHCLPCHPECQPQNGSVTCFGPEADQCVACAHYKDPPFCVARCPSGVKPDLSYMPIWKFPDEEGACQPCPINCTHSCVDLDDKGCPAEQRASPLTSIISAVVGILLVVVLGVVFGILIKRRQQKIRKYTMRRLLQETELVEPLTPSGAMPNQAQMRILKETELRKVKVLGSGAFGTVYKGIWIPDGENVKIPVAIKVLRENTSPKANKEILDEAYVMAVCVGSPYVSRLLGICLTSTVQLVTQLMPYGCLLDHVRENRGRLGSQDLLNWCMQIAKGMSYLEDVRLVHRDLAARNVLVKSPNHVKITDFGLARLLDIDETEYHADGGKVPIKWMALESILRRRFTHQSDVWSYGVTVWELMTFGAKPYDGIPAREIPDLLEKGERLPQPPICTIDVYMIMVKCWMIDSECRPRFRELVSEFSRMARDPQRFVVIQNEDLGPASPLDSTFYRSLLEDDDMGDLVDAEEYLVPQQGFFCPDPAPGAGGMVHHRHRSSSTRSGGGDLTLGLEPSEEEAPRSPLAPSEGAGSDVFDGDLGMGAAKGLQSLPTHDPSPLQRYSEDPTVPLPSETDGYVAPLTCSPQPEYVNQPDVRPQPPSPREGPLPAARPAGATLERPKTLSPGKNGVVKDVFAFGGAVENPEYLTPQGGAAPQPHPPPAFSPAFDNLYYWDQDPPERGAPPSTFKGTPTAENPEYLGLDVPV

Cc1ccc(Oc2ccc(Nc3ncnc4sc5c(c34)C(C)CN(C(=O)C=CCN(C)C)C5)cc2C)cn1 (single isomer, unassigned) [Compound 105]
< 100 nM: GI50 (N87 cells; Homo sapiens) | GI50 (BT474 cells; [1]) | GI50 (NCI-H1781 cells; [2]) | EC50 (HER2VC (G776delinsVC))

Cc1ccc(Oc2ccc(Nc3ncnc4sc5c(c34)C(C)CN(C(=O)C=CCN(C)C)C5)cc2C)cn1 (single isomer, unassigned) [Compound 106]
< 100 nM: GI50 (N87 cells) | GI50 (BT474 cells; BT474 cells) | GI50 (NCI-H1781 cells; NCI-H1781 cells) | EC50 (HER2VC (G776delinsVC))

Cc1cc(Nc2ncnc3sc4c(c23)CCN(C(=O)/C=C/CN(C)C)C4)ccc1Oc1ccc2ncnn2c1 [Compound 3, (E)-1-(4-((4-([1,2,4]triazolo[1,5-a]pyridin-6-yloxy)-3-methylphenyl)amino)-5,8-dihydropyrido[4′,3′:4,5]thieno[2,3-d]pyrimidin-7(6H)-yl)-4-(dimethylamino)but-2-en-1-one]
< 100 nM: EC50 (HER2VC (G776delinsVC))

C=CC(=O)N1CCc2c(sc3ncnc(Nc4ccc(Oc5ccc6ncnn6c5)c(Cl)c4)c23)C1 [Compound 4, 1-(4-((4-([1,2,4]triazolo[1,5-a]pyridin-6-yloxy)-3-chlorophenyl)amino)-5,8-dihydropyrido[4′,3′:4,5]thieno[2,3-d]pyrimidin-7(6H)-yl)prop-2-en-1-one]
< 100 nM: EC50 (HER2VC (G776delinsVC))

CN(C)C/C=C/C(=O)N1CCc2c(sc3ncnc(Nc4ccc(Oc5ccc6ncnn6c5)c(Cl)c4)c23)C1 [Compound 5, (E)-1-(4-((4-([1,2,4]triazolo[1,5-a]pyridin-6-yloxy)-3-chlorophenyl)amino)-5,8-dihydropyrido[4′,3′:4,5]thieno[2,3-d]pyrimidin-7(6H)-yl)-4-(dimethylamino)but-2-en-1-one]
< 100 nM: EC50 (HER2VC (G776delinsVC))

Cc1ccc(Oc2ccc(Nc3ncnc4sc5c(c34)CCN(C(=O)/C=C/CN(C)C(C)(C)C)C5)cc2C)cn1 [Compound 33]
< 100 nM: GI50 (N87 cells; Homo sapiens) | GI50 (BT474 cells; [1]) | GI50 (NCI-H1781 cells; [2]) | EC50 (HER2VC (G776delinsVC))

Cc1ccc(Oc2ccc(Nc3ncnc4sc5c(c34)CCN(C(=O)/C=C/CN3CC4C(CO)C4C3)C5)cc2C)cn1 (stereo not shown) [Compound 34]
< 100 nM: GI50 (N87 cells; Homo sapiens) | GI50 (BT474 cells; [1]) | GI50 (NCI-H1781 cells; [2]) | EC50 (HER2VC (G776delinsVC))

Cc1ccc(Oc2ccc(Nc3ncnc4sc5c(c34)CCN(C(=O)/C=C/CN3CCCOCC3)C5)cc2C)cn1 [Compound 42]
< 100 nM: GI50 (N87 cells; Homo sapiens) | GI50 (BT474 cells; [1]) | GI50 (NCI-H1781 cells; [2])

COc1ccc(Oc2ccc(Nc3ncnc4sc5c(c34)CCN(C(=O)/C=C/CN(C)C)C5)cc2C)cn1 [Compound 95, (E)-4-(Dimethylamino)-1-(4-((4-((6-methoxypyridin-3-yl)oxy)-3-methylphenyl)amino)-5,6-dihydropyrido[4′,3′:4,5]thieno[2,3-d]pyrimidin-7(8H)-yl)but-2-en-1-one]
< 100 nM: GI50 (N87 cells; Homo sapiens) | GI50 (BT474 cells; [1]) | GI50 (NCI-H1781 cells; [2]) | EC50 (HER2VC (G776delinsVC))

Cc1ccc(Oc2ccc(Nc3ncnc4sc5c(c34)C(C)CN(C(=O)/C=C/CN(C)C)C5)cc2C)cn1 (stereo not shown) [Compound 98, (E)-4-(dimethylamino)-1-(5-methyl-4-((3-methyl-4-((6-methylpyridin-3-yl)oxy)phenyl)amino)-5,8-dihydropyrido[4′,3′:4,5]thieno[2,3-d]pyrimidin-7(6H)-yl)but-2-en-1-one]
< 100 nM: GI50 (N87 cells; Homo sapiens) | GI50 (BT474 cells; [1]) | GI50 (NCI-H1781 cells; [2]) | EC50 (HER2VC (G776delinsVC))

Cc1ccc(Oc2ccc(Nc3ncnc4sc5c(c34)CN(C(=O)/C=C/CN(C)C)C5)cc2C)cn1 [Compound 99, (E)-4-(dimethylamino)-1-(4-((3-methyl-4-((6-methylpyridin-3-yl)oxy)phenyl)amino)-5,7-dihydro-6H-pyrrolo[3′,4′:4,5]thieno[2,3-d]pyrimidin-6-yl)but-2-en-1-one]
< 100 nM: GI50 (N87 cells; Homo sapiens) | GI50 (BT474 cells; [1]) | GI50 (NCI-H1781 cells; [2])

Cc1ccc(Oc2ccc(Nc3ncnc4sc5c(c34)CCN(C(=O)/C=C/CN(C)C)CC5)cc2C)cn1 [Compound 100, (E)-4-(dimethylamino)-1-(4-((3-methyl-4-((6-methylpyridin-3-yl)oxy)phenyl)amino)-8,9-dihydro-5H-pyrimido[5′,4′:4,5]thieno[2,3-d]azepin-7(6H)-yl)but-2-en-1-one]
< 100 nM: GI50 (N87 cells; Homo sapiens) | GI50 (BT474 cells; [1]) | GI50 (NCI-H1781 cells; [2]) | EC50 (HER2VC (G776delinsVC))
